Reference: patent US20230212216A1, “SYNTHESIS OF LACTONE DERIVATIVES AND THEIR USE IN THE MODIFICATION OF PROTEINS” (priority 2019, published 2023)
Like-named read-outs stand apart in the source and are kept apart here. Where no end group is shown, it is not given here.

What was measured:
[1] = tested on: N-terminally gluconoyl-labelled Beltide-1 derivative peptide PP6; assay: Boron-containing reagents to modulate reversibility (heat-accelerated deacylation); type: physicochemical; details: 5 mM additive, 50 μM peptide; for Remaining gluconoyl-label, pH 7.5 after 15 h at 50° C.: 50 mM HEPES/NaOH buffer; for Remaining gluconoyl-label, pH 6.8 after 15 h at 50° C.: 50 mM phosphate/KOH buffer
Protocol: To explore the reversibility modulating effect of various boron-containing molecules, a small library of reagents was tested at pH 7.5 (50 mM HEPES/NaOH buffer) and pH 6.8 (50 mM phosphate/KOH buffer).
Reaction supplemented with 5 mM of additive; calculated as the ratio of the TIC for the labelled divided by the sum of TICs of both labelled and unlabeled species.

[2] = tested on: GDL acylated G-H6-Beltide-1; assay: Effect of copper ions on reversibility of acylation; type: physicochemical; details: various CuSO4 concentrations, pH 7.5, 37° C.
Protocol: FIG. 3: Reversibility of GDL:G-H6-Beltide-1 in the presence of various CuSO4 and EDTA concentrations at pH 7.5. GDL acylated G-H6-Beltide-1 was produced as before, extra GDL was removed by C18 reverse phase purification and the acylated peptide (20 μM) was stored in 50 mM HEPES (NaOH) buffer supplemented with various concentrations of CuSO4 and EDTA at 37° C. Change in acylation status was monitored by MALDI-TOF MS TIC and is reported as the relative m/z ratio of the acylated (m1) and non-acylated species (m2) ([m1/z/(m1/z+m2/z)]*100%).
1 mM G-H6-Beltide-1 (˜1 mg of peptide) was acylated with 100 mM GDL in 200 mM HEPES (NaOH) pH 7.5 for 1 h at room temperature in a total volume of ˜300 μL. Upon addition of buffer to peptide but before addition of GDL, precipitation was clearly observed. This precipitation may be due to the theoretical pI of G-H6-Beltide-1 being close to pH 7.5, or because G-H6-Beltide-1 is a Beltide-1 variant. Beltide-1 is known to form nanodiscs in solution upon contact with membrane proteins or lipid components (Midtgaard et al. 2014; Martos-Maldonado et al. 2018). GDL was added to 100 mM from a freshly prepared 1 M stock solution. The solution remained cloudy. […] The acylated peptide was analyzed by MALDI-MS and initial acylation extent was estimated to be ˜96%, stored at −20° C. until further usage. […]

[3] = tested on: GDL-acylated GSS-H6-Beltide-1 peptide; assay: Effect of nickel ions on reversibility of acylation; type: physicochemical; details: 0.01-1 mM NiSO4, pH 7.5, 37° C., up to day 7
Protocol: GSS-H6-Beltide-1 peptide was GDL-acylated and extra GDL was removed via C18 SepPack chromatography. GDL-acylated peptide was dissolved in 100 mM HEPES (NaOH), pH 7.5, 10% ACN (v/v) to a final concentration of ˜100 μM and aliquoted into 0.5 mL LoBind (Eppendorf) microcentrifuge tubes. NiSO4 was supplemented to 0, 0.01, 0.1, and 1 mM final concentration from a 100 mM NiSO4 stock in H2O. A control sample was supplemented with a pre-mixed solution of NiSO4 and EDTA, to give a final concentration of 1 mM NiSO4 and 5 mM EDTA [stock solution 10 mM NiSO4 and 50 mM EDTA (NaOH neutralized)]. The samples (50 μL volume each) were kept in a water bath at 37° C. Aliquots of 2 μL were taken on day 1, 3, 5, and 7, mixed with 10 μL of 5% acetic acid, purified by C18 ZipTip chromatography and analyzed by MALDI-TOF-MS instrumentation.

[4] = tested on: GDL-acylated GSS-H6-Beltide-1 peptide; assay: Effect of zinc ions on reversibility of acylation; type: physicochemical; details: day 7
Protocol: GSS-H6-Beltide-1 peptide was GDL-acylated and extra GDL was removed via C18 SepPack chromatography. GDL:peptide was dissolved in 100 mM HEPES (NaOH), pH 7.5 with or without ZnSO4 (0.2 mM and 2 mM) to a final concentration of ˜100 μM. ACN was added to 10% v/v to reduce possible nanodisc formation and precipitation of the peptide to the plastic microcentrifuge wall. The reaction mixtures (100 μL volume each) were kept in a water bath at 37° C. Aliquots of 2 μL were taken at day 3, mixed with 10 μL of 5% acetic acid, purified by C18 ZipTip chromatography and analyzed by MALDI-TOF-MS instrumentation. […] The remaining reaction mixture (80 μL) was acidified by adding 50% (v/v) acetic acid. The amount of acetic acid to be added was calculated as 20% of the remaining reaction volume [final concentration 7.57% acetic acid v/v]. Likewise, 10% reaction volume of 100% acetonitrile were added (final concentration acetonitrile ˜16.6% v/v) and the reaction was mixed by quick vortexing. Of this mixture, 15 μL aliquots were processed via C18 ZipTip chromatography and analyzed by MALDI-TOF-MS instrumentation. We speculate that the peptide had bound to the microcentrifuge wall and assumed that the precipitation affected both acylated and non-acylated species equally.

serine protease trypsin = details: 50 mM boric acid
[5] = tested on: 6-AGDL acylated GSS-H6-Beltide-1
Protocol: The volume was then made up to 15 mL to give a 1 M stock solution.
pH 6 buffer was made by preparing a 1 M stock solution of citric acid monohydrate and by making a solution of 1 M sodium citrate dihydrate. The two solutions were mixed to give a 1 M stock solution of pH 6.
pH 7.5 buffer was made by mixing a 1 M stock solution of potassium phosphate monobasic with 1 M solution of potassium phosphate dibasic to give a pH of 7.5.
pH 8.8 buffer was prepared by titrating 1 M solution of acetic acid with ammonium solution to give pH 8.8.
20 μM 6-AGDL modified peptide was stored in 100 μL aliquots in 200 mM buffer as indicated. The vials (triplicates) were incubated in a 37° C. water bath throughout the experiment and were retrieved for sample acquisition for <30 mins at room temperature before they were returned to the water bath.
10 μL of subsamples for pH 4, 6 and 8.8 were acidified with 5 μL of 20% (v/v) acetic acid and subjected to C18 ZipTip purification. Samples were analyzed in positive reflectron mode with MALDI-TOF MS.
pH 7.5 samples were stored in the presence of 10% ACN (v/v) to counteract precipitation. For pH 7.5 samples, 15 μL aliquots were taken for each time point and desalted using 0.1% TFA-70% ACN/0.1% TFA C18 Zip-Tip procedure. 0.5 μL of the Eluate was mixed 1:1 with C1CCA matrix mixture and spotted onto a MALDI steel target prior to detection in reflector positive mode MALDI-TOF MS.

[6] = Reversibility of 6-AGDL acylated G-H6 and non-His-tagged peptides; type: physicochemical; details: 6-AGDL acylated peptide, 14 days at room temperature, 1M HEPES pH 7.5
Protocol: 100 μM of G-H6-Beltide-1, GGKWSKR-Beltide-1 and GGTYSDH-Beltide-1 peptides were reacted at 4° C. with 6-AGDL in 1M HEPES, pH 7.5 by sequentially adding 100 mM 6-AGDL twice in 3 h intervals. Extra 6-AGDL was not removed, and the samples were stored at room temperature throughout the experiment.
2 μL from each sample were taken at each time point except for day 14. 10 μL of 2% acetic acid was added to each timepoint sample and the mixtures were desalted by C18 ZipTip chromatography. Eluate was analyzed by MALDI-TOF MS as before.
At day 14 the remaining samples underwent recovery procedure where all of the reaction mixtures were acidified by adding 20% of reaction volume of 50% (v/v) acetic acid [final concentration 7.57% acetic acid (v/v)] and then adding 10% reaction volume of 100% acetonitrile [final concentration ACN […]]. Of this mixture, 15 μL aliquots were taken, cleaned by ZipTip C18 Chromatography and analyzed by MALDI-TOF-MS instrumentation.

[7] = tested on: non-activated HEK-produced RBD; assay: Endpoint anti-RBD ELISA of sera of immunized mice; design: species or system SARS-CoV-2; details: in vivo
Pseudovirus = assay: Pseudovirion neutralization assay; type: cell-based, SARS-CoV-2; details: mice sera day 42, after a total of 3 immunizations
Protocol: The conjugate material was then used to immunize mice at 10 μg per dose formulated in AddaVax (Invivogen) according to the manufacturer on Day 0. Boosts with the same dose and formulation were performed on day 14 and day 28. Sera samples were taken before each immunization for immunological studies. Animals were sacrificed on day 42.
Pseudovirion neutralization assays were performed with samples obtained at day 42 according to standard procedures known in the art.

With O=Cc1ccccc1B(O)O [2-formylphenylboronic acid] the “Remaining gluconoyl-label, pH 7.5 after 15 h at 50° C.” value [1] was about 99% and the “Remaining gluconoyl-label, pH 6.8 after 15 h at 50° C.” value [1] was about 95%.
In the case of O=Cc1ccc(B(O)O)cc1 [4-formylphenylboronic acid], the “Remaining gluconoyl-label, pH 7.5 after 15 h at 50° C.” value [1] is reported as about 95% and the “Remaining gluconoyl-label, pH 6.8 after 15 h at 50° C.” value [1] is reported as about 46%.
In the case of O=S(=O)([O-])[O-].[Cu+2] [CuSO4], the rate of reversibility [2] is reported as “decreasing rate of reversibility as a function of increasing CuSO4 concentration”.
With O=S(=O)([O-])[O-].[Ni+2] [NiSO4] the reversibility of acylation [3] was “seemingly abolished reversibility”.
With O=S(=O)([O-])[O-].[Zn+2] [ZnSO4] the remaining gluconoylation ([4]; 0.2 mM ZnSO4, pH 7.5, 37° C.) was about 80% and the remaining gluconoylation ([4]; 2 mM ZnSO4, pH 7.5, 37° C.) was about 75%.
For OB(O)O [boric acid, Boric acid], the inhibition of trypsin (serine protease trypsin) was “did not measurably inhibit”, the “Remaining gluconoyl-label, pH 7.5 after 15 h at 50° C.” value [1] was about 69% and the “Remaining gluconoyl-label, pH 6.8 after 15 h at 50° C.” value [1] was about 8%. For the same compound, the reversibility of acylation ([5]; >50 mM boric acid, pH 8.8, 7 days, 37° C.) was “effectively inhibited”, the reversibility of acylation ([5]; pH 4, 37° C.) was “no effect was observed” and the reversibility of acylation ([5]; pH 6, 37° C.) was “modulated the reversibility”.
For CB(O)O [methylboronic acid], the “Remaining gluconoyl-label, pH 7.5 after 15 h at 50° C.” value [1] was about 59% and the “Remaining gluconoyl-label, pH 6.8 after 15 h at 50° C.” value [1] was about 6%.
In the case of OB(O)c1ccccc1 [phenylboronic acid], the “Remaining gluconoyl-label, pH 7.5 after 15 h at 50° C.” value [1] is reported as about 83% and the “Remaining gluconoyl-label, pH 6.8 after 15 h at 50° C.” value [1] is reported as about 31%.
For OB1OCc2cc(F)ccc21 [tavaborole, 5-Fluoro-1,3-dihydro-1-hydroxy-2,1-benzoxaborole], the “Remaining gluconoyl-label, pH 7.5 after 15 h at 50° C.” value [1] was about 87% and the “Remaining gluconoyl-label, pH 6.8 after 15 h at 50° C.” value [1] was about 87.9%.
“GGKWSKRDWLKAFYDKVAEKLKEAF [GGKWSKR-Beltide-1]” showed a remaining acylation [6] of about 64%.
For “GGTYSDHDWLKAFYDKVAEKLKEAF [GGTYSDH-Beltide-1]”, the remaining acylation [6] was 75%.
Compound GHHHHHHDWLKAFYDKVAEKLKEAF [PP1] has a remaining acylation [6] of 27%.
In the case of “Qbeta: Qbeta VLPs (SEQ ID NO: 86) produced in E. coli”, the “anti-RBD response (ELISA titers) after a single injection” value [7] is reported as “did not show a measurable response” and the “% of neutralization at dilution 1:300” value (Pseudovirus) is reported as 17.24%.
